Assay results taken from BindingDB's records for doi:10.1021/acsmedchemlett.3c00236 (Smith, Gambrell & Russell, 2023).
pIC50: −log10 of the molar value.

Assay: Inhibition of NLRP3 in human THP-1 cells assessed as reduction in pyroptosis preincubated for 3 hrs followed by nigericin addition and measured after 1 hr by resazurin dye based microplate reader analysis

pIC50: 9.22
SMILES: CCN1CCC[C@H](Nc2nc3nc(-c4c(C)cc(Cl)c(F)c4O)ccc3o2)C1
